{"source": "patent US20110184054A1", "about": "“Alpha-lipoic acid concentrate” (AQUANOVA GERMAN SOLUBILISATE TECHNOLOGIES (AGT) GmbH, priority 2004, published 2011)", "origin": "cited, not measured here", "data": [{"compound": "O=C(O)CCCCC1CCSS1", "note": "(stereo not drawn) [α-lipoic acid]", "values": [{"measurement": "appetite suppressing effect", "setting": "rats", "value": "a certain appetite suppressing effect"}, {"measurement": "effect on problems of overweight patients", "setting": "overweight patients", "value": "alleviates their problems"}]}]}
